Data published in patent US4176182A, “Sulfamoyl derivatives of 8-β-aminomethylergoline” (priority 1976, dated 1979).
In brackets after ≈: the same amount, converted by molar mass. Read-outs that look alike come from different tables or passages of the source.

Columns and labels:
[1] = system: 5-hydroxytryptamine (serotonin) induced contractions, uterus of female rat; experiment: inhibition of 5-hydroxytryptamine (serotonin)-induced contractions in uterus of female rat, in vitro; type: cell-based; conditions: for EC50: 5-HT-induced contractions, rat treated with estradiol dipropionate 20 hours before; for times more active than the comparison compound as to the anti-5 HT activity: comparison compound methergoline
Description: (§1) These novel compounds show anti-serotonin activity both peripherally and on the central nervous system. This activity had been tested "in vitro" through the inhibition of the contractions as induced by 5-hydroxytryptamine (serotonin) (5 HT) in the uterus of a female rat, which 20 hours before the test had been treated with estradiol dipropionate (see Ersparmer, Archiv. int. Pharmacodyn. 93, 293, 1953), and "in vivo" on the clones induced by tryptamine (40 mg/kg i.v.) in the rat (S. J. Corne et al., Brit. J. Pharmacol., 20, 106, 1963).

[2] = system: clones induced by tryptamine; experiment: clones induced by tryptamine in the rat, in vivo; conditions: sc, read-out: Clones induced by Tryptamine ED50
Description: as §1

[3] = system: seminal vesicle of guinea pig; experiment: adrenolytic activity, seminal vesicle of guinea pig, in vitro; type: cell-based; conditions: for EC50: Cavia porcellus, adrenolytic activity, in vitro; for times less active as regards the adrenolytic activity: vs comparison compound (dihydroergocristine as alpha-blocking agent)
[4] = system: ileus of guinea pig (BaCl2); experiment: spasmolytic activity, ileus of guinea pig, BaCl2, in vitro; type: cell-based; conditions: for EC50: Cavia porcellus, spasmolytic activity, in vitro, no quantity or unit printed in this column head; for times less active as regards the spasmolytic activity: vs comparison compound (papaverine as spasmolytic agent)
LD50 in the mouse, iv = conditions: in vivo

| Structure (SMILES) | EC50 [1] | ED50 ([2]; rat, tryptamine 40 mg/kg i.v.) | EC50 [3] | EC50 [4] | LD50 (LD50 in the mouse, iv) | times more active than the comparison compound as to the anti-5 HT activity [1] | times less active as regards the adrenolytic activity [3] | times less active as regards the spasmolytic activity [4] | ED50 ([2]; Rattus norvegicus) |
| --- | --- | --- | --- | --- | --- | --- | --- | --- | --- |
| CN1C[C@H](CNS(=O)(=O)N(C)C)C[C@@H]2c3cccc4[nH]cc(c34)C[C@H]21 [Compound 2] | 5 ng/mL (≈ 0.0138 µM) | 10 mg/kg | 1500 ng/mL (≈ 4.14 µM) | 10000 ng/mL (≈ 27.6 µM) | 22.5 mg/kg |  |  |  |  |
| CN1C[C@H](CNS(=O)(=O)N2CCCCC2)C=C2c3cccc4[nH]cc(c34)C[C@H]21 [Compound 5, 1-(6-methyl-8β-didehydroergolenylmethyl)-3-piperidino-sulfonamide] | 3 ng/mL (≈ 0.00749 µM) | 0.51 mg/kg | 200 ng/mL (≈ 0.499 µM) | 7500 ng/mL (≈ 18.7 µM) | 45 mg/kg |  |  |  |  |
| CN1C[C@H](CNS(=O)(=O)N2CCCCCC2)C=C2c3cccc4[nH]cc(c34)C[C@H]21 [Compound 7, 1-(1H-hexahydroazepine)-3-(6-methyl-8β-didehydroergolenyl-methyl)-sulfonamide] | 7 ng/mL (≈ 0.0169 µM) | 2.47 mg/kg | 800 ng/mL (≈ 1.93 µM) | 5000 ng/mL (≈ 12.1 µM) | 50.2 mg/kg |  |  |  |  |
| CN1C[C@H](CNS(=O)(=O)N2CCOCC2)C=C2c3cccc4[nH]cc(c34)C[C@H]21 [Compound 9, 1-(6-methyl-8β-didehydroergolenylmethyl)-3-morpholino-sulfonamide] | 5 ng/mL (≈ 0.0124 µM) | 4.25 mg/kg | 100 ng/mL (≈ 0.248 µM) | 15000 ng/mL (≈ 37.3 µM) | 34.5 mg/kg |  |  |  |  |
| CN1C[C@H](CNS(=O)(=O)N2CCOCC2)C[C@@H]2c3cccc4[nH]cc(c34)C[C@H]21 [Compound 10] | 5 ng/mL (≈ 0.0124 µM) | 7.2 mg/kg | 70 ng/mL (≈ 0.173 µM) | 5000 ng/mL (≈ 12.4 µM) | 51 mg/kg |  |  |  |  |
| CN1C[C@H](CNS(=O)(=O)N2CCCC2)C=C2c3cccc4c3c(cn4C)C[C@H]21 [Compound 11, 1-(1,6-dimethyl-8β-didehydroergolenylmethyl)-3-pyrrolidine-sulfonamide] | 0.2 ng/mL (≈ 0.000499 µM) | 0.016 mg/kg | 1000 ng/mL (≈ 2.5 µM) | 15000 ng/mL (≈ 37.4 µM) | 22.3 mg/kg | 25 times | 25 times | 2 times |  |
| CN1C[C@H](CNS(=O)(=O)N2CCCCC2)C=C2c3cccc4c3c(cn4C)C[C@H]21 [Compound 12, 1-(1,6-dimethyl-8β-didehydroergolenylmethyl)-3-piperidino-sulfonamide] | 0.02 ng/mL (≈ 4.82e-05 µM) | 0.046 mg/kg | 1000 ng/mL (≈ 2.41 µM) | 15000 ng/mL (≈ 36.2 µM) | 20 mg/kg | 250 times | 25 times | 2 times |  |
| CC(C)[C@@]1(NC(=O)[C@@H]2C[C@@H]3c4cccc5[nH]cc(c45)C[C@H]3N(C)C2)O[C@@]2(O)[C@@H]3CCCN3C(=O)[C@H](Cc3ccccc3)N2C1=O [Dihydroergocristine methansulfonate, dihydroergocristine, reference compound] |  |  | 8 ng/mL |  | 70 mg/kg |  |  |  |  |
| CN1C[C@H](CNC(=O)OCc2ccccc2)C[C@@H]2c3cccc4c3c(cn4C)C[C@H]21 [Methergoline, methergoline, reference compound] | 5 ng/mL (≈ 0.0124 µM) |  |  |  | 21.2 mg/kg |  |  |  | 0.062 mg/kg |
| COc1ccc(Cc2nccc3cc(OC)c(OC)cc23)cc1OC [Papaverin, papaverine, reference compound] |  |  |  | 8900 ng/mL (≈ 26.2 µM) | 38 mg/kg |  |  |  |  |
